Consider one compound from PMC8466300, “Investigating the Central Nervous System Disposition of Actinomycin D: Implementation and Evaluation of Cerebral Microdialysis and Brain Tissue Measurements Supported by UPLC-MS/MS Quantification” (Pharmaceutics, 2021).

Each structure is given as a SMILES string. *1 amine or outer side, *2 acyl side, *3 side chain or, on linkers, in order; H or OH if unused. Where a SMILES comes first, the peptide text is derived from it. Bridges are numbered along the chain shown (N, C = ends). Roman numbers before positions name the chains, in order. [ ]: non-standard residue; d: D form. Actinocin(9to1) = Cc1c2oc3c(C)ccc(C(=O)[*:1])c3nc-2c(C(=O)[*:2])c(N)c1=O; NMeV = CN[C@H](C(=O)O)C(C)C; Sar = CNCC(=O)O

Series [1] in a line: in vitro. Conditions: mouse, plasma. The protocol: To determine the previously unknown unbound fraction of actinomycin D in plasma and brain tissue homogenate, we performed rapid equilibrium dialysis (RED) in duplicate. For this, samples were spiked with drug solutions that were prepared in plasma or brain tissue homogenate to obtain minimally diluted samples (30 ng/mL for plasma and 30 ng/g for brain tissue). The free actinomycin D tissue fraction was also quantified in a pooled sample of brain tissue homogenates from the three mice euthanized 2 h after dosing. Determinations were performed on a RED apparatus (ThermoFisher Scientific, Waltham, MA, USA) according to the manufacturer´s instructions under gentle agitation for 12 h at 37 °C.

How the values of series [2] were obtained:
(§1) To confirm the P-gp substrate characteristics of actinomycin D, we conducted growth inhibition and uptake assays in a cell line over-expressing human P-gp/ABCB1 (L-MDR1 cells) in comparison to the respective parental cell line (LLC-PK1). L-MDR1 cells were kindly provided by A. H. Schinkel (The Netherlands Cancer Institute, Division of Experimental Therapy, Amsterdam, The Netherlands). The cells were cultured under standard cell culture conditions with medium M199 supplemented with 10% FCS, 2 mM glutamine, 100 U/mL penicillin, and 100 µg/mL streptomycin sulfate. The culture medium for L-MDR1 was supplemented with 0.64 µM vincristine to maintain P-gp/ABCB1 expression. One day before using the cells in the assays, both cell lines were fed with vincristine-free culture medium.
(§2) The assays were performed in quadruplicate, as described previously, using ten concentrations of actinomycin D from 0.0005–10 µM in octuplets.
(§3) Calibration curves were determined with 1/x^2 weighted linear regression using peak area ratios of the analyte to IS. This calculation was performed using the software TargetLynx V4.2 (Waters, Milford, MA, USA). Plasma pharmacokinetics were determined with the software Kinetica (v 5.0; Thermo Fisher Scientific, Waltham, MA, USA). Standard calculations were performed using Microsoft Office Excel 2010 ([…]). Concentration–response curves and IC50 values were calculated by GraphPad Prism version 9.0.0 (GraphPad Software Inc., La Jolla, CA, USA) according to a sigmoid Emax model.

The test system of series [3] is LLC-PK1 cells. Conditions: read-out: IC50 (proliferation); LLC-PK1 parental cells; four experiments, each concentration in octuplet; ten concentrations 0.0005–10 µM; sigmoid Emax model. The procedure: as §1, §2, §3
The conditions of series [4]: two patients, three hours after intravenous administration; cited from earlier work. The source says: However, in this earlier study, actinomycin D was quantified in cerebrospinal fluid three hours after intravenous administration, i.e., in a protein-poor compartment that is also separated from blood and tissue by active barriers. […] In a more recent study in m ...

Series [5] concerns P-gp. Conditions: cited from earlier work.
For series [6] the following is noted: 7 months at −20 °C; cited from earlier work.

One may read the fraction unbound as free concentration divided by total concentration. The low end stands for extensive binding, the high end for weak binding. `Cc1c2oc3c(C)ccc(C(=O)N[C@@H]4C(=O)N[C@H](C(C)C)C(=O)N5CCC[C@H]5C(=O)N(C)CC(=O)N(C)[C@@H](C(C)C)C(=O)O[C@@H]4C)c3nc-2c(C(=O)N[C@@H]2C(=O)N[C@H](C(C)C)C(=O)N3CCC[C@H]3C(=O)N(C)CC(=O)N(C)[C@@H](C(C)C)C(=O)O[C@@H]2C)c(N)c1=O` [actinomycin D, Actinomycin D] (I: T[dV]P[Sar][NMeV] / II: T[dV]P[Sar][NMeV]; ester I:1-I:C, II:1-II:C; linker I:N-II:N via Actinocin(9to1)) yielded a fraction unbound at 12 h, 30 ng/mL in series [1] of 0.231. Further, the IC50 in series [2] stood at 2400 ± 600 nM; in series [3], 21 ± 6 nM. The “cerebrospinal fluid concentration relative to corresponding plasma concentration” value in series [4] is listed as “approximately 10%”. Further, the “brain exposure in P-gp knockout mice relative to wildtype mice” value in series [5] was 2.3 fold. In addition, the “long-term stability in human plasma” value in series [6] is “has already been demonstrated”.
